The structures appear in SMILES notation.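 Cells were grown in 96-well plates and exposed to each compound for 48 hours at five concentrations; endpoints were interpolated linearly between bracketing concentrations, or set to the highest concentration if not reached. GI50 is the concentration that inhibits growth by half. TGI denotes the concentration required for complete inhibition of growth.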 Some results are limits rather than exact numbers.

This passage reports GI50 and TGI results from PubChem BioAssay (NCI).

Some test systems named below: EKVX NSCLC; OVCAR-3 ovarian; CCRF-CEM leukemia; SF-295 CNS; M14 melanoma; CAKI-1 renal; SR leukemia; NCI-H226 lung; HCT-116 colon; SNB-19 CNS.
What all share (assay): NCI anticancer screen, dose series, 48 h

As for `COc1cc(C2C3=C(COC3=O)N(CCO)c3cc4c(cc32)CCC4)cc(OC)c1O` (centres undefined), the GI50 with EKVX NSCLC is 1380 nM; in the assay with OVCAR-3 ovarian, 70.3 nM; in the assay with CCRF-CEM leukemia, 1210 nM; in the assay with SF-295 CNS, 97.3 nM; in the assay on M14 melanoma, 179 nM; in the assay on CAKI-1 renal, 508 nM. Moreover, the GI50 was 192 nM in the assay on SR leukemia, 3.75 µM in the assay with NCI-H226 lung, 138 nM in the assay with HCT-116 colon and 318 nM in the assay with SNB-19 CNS. Moreover, the TGI in the assay with EKVX NSCLC was above 32.5 µM; in the assay on OVCAR-3 ovarian it was 0.184 µM; in the assay with CCRF-CEM leukemia it was above 32.5 µM; in the assay with SF-295 CNS it was 0.354 µM; with CAKI-1 renal it was above 26.3 µM; with SR leukemia, above 32.5 µM. For the same molecule, the TGI with NCI-H226 lung was above 32.5 µM; with HCT-116 colon, above 12.5 µM; with SNB-19 CNS, above 32.5 µM.
As for `Oc1cc2cc(-c3ccccc3)[nH]c2c2ccccc12`, the TGI in the assay with EKVX NSCLC is above 100 µM; in the assay with OVCAR-3 ovarian it was above 61.4 µM; in the assay with CCRF-CEM leukemia, above 100 µM; with SF-295 CNS it was above 24.5 µM; in the assay on M14 melanoma, 61 µM; with CAKI-1 renal it was 90.8 µM. For the same molecule, the TGI with SR leukemia is above 93.6 µM; in the assay with NCI-H226 lung, above 100 µM; in the assay on HCT-116 colon it was 37.1 µM; with SNB-19 CNS it was above 70.2 µM.
In the case of `CC1=CC2=C(C)C3(CC3)[C@@](C)(O)C(=O)C2=C1`, the TGI was 0.992 µM with EKVX NSCLC; 0.352 µM with OVCAR-3 ovarian; above 1 µM with CCRF-CEM leukemia; 0.571 µM with SF-295 CNS; 0.393 µM with M14 melanoma; 0.744 µM in the assay with CAKI-1 renal. Moreover, the TGI with SR leukemia was above 1 µM; with NCI-H226 lung, 0.492 µM; in the assay with HCT-116 colon it was 0.357 µM; with SNB-19 CNS, 0.545 µM.
For the molecule `COC(=O)c1c(C)oc2ccc(OC(C)=O)cc12`, the TGI in the assay with EKVX NSCLC, in the assay with OVCAR-3 ovarian, with CCRF-CEM leukemia, in the assay with SF-295 CNS, in the assay on M14 melanoma and with CAKI-1 renal was above 100 µM throughout. Moreover, the TGI with SR leukemia, in the assay with NCI-H226 lung, in the assay with HCT-116 colon and in the assay with SNB-19 CNS was above 100 µM each time.
On to `CCOP(=O)(OCC)/C(C#N)=C\c1cccc2ccccc12`, for which the TGI with EKVX NSCLC was above 100 µM; with OVCAR-3 ovarian it was above 100 µM; in the assay with CCRF-CEM leukemia it was 97.7 µM; in the assay on SF-295 CNS, above 100 µM; with M14 melanoma, above 100 µM; in the assay on CAKI-1 renal, above 100 µM. Besides, the TGI in the assay on SR leukemia was above 75.1 µM; in the assay on NCI-H226 lung it was above 73.8 µM; in the assay with HCT-116 colon, above 100 µM; with SNB-19 CNS, above 100 µM.
Regarding `C[C@@H](NC(=O)Cc1cc(F)cc(F)c1)C(=O)N[C@@]1(C)N=C(c2ccccc2)c2ccccc2N(C)C1=O`, the GI50 was 30200 nM in the assay with EKVX NSCLC; 30000 nM in the assay on OVCAR-3 ovarian; 24600 nM with CCRF-CEM leukemia; 42800 nM in the assay with SF-295 CNS; 26000 nM with M14 melanoma; 11700 nM with CAKI-1 renal. Further, the GI50 was 2500 nM in the assay on SR leukemia, 24 µM in the assay on NCI-H226 lung, 32200 nM with HCT-116 colon and above 100000 nM with SNB-19 CNS. Besides, the TGI with EKVX NSCLC is above 85.8 µM; in the assay on OVCAR-3 ovarian, above 100 µM; with CCRF-CEM leukemia, above 100 µM; in the assay on SF-295 CNS, above 100 µM; in the assay with M14 melanoma, above 86.6 µM; in the assay on CAKI-1 renal it was above 56.8 µM. Further, the TGI in the assay on SR leukemia is above 22.7 µM; in the assay with NCI-H226 lung it was 71.9 µM; in the assay on HCT-116 colon, above 100 µM; with SNB-19 CNS, above 100 µM.
On to `CC1(CC(=O)O)OC2CCCCCC2O1` (centres undefined) (tested in a mixture with another compound), for which the TGI in the assay on EKVX NSCLC is above 100 µM; in the assay with OVCAR-3 ovarian it was above 100 µM; in the assay with CCRF-CEM leukemia, 84.5 µM; with SF-295 CNS, above 100 µM; with M14 melanoma it was above 100 µM; with CAKI-1 renal, above 100 µM. For the same molecule, the TGI in the assay on SR leukemia, in the assay with NCI-H226 lung, in the assay on HCT-116 colon and in the assay with SNB-19 CNS was above 100 µM each time.
Consider `COc1cc2oc3ccccc3c(=O)c2cc1CSc1ccccc1N`, for which the TGI in the assay on EKVX NSCLC was above 100 µM; with OVCAR-3 ovarian, above 68.1 µM; with CCRF-CEM leukemia, 45.6 µM; in the assay with SF-295 CNS, above 100 µM; in the assay on M14 melanoma, above 100 µM; in the assay with CAKI-1 renal, above 100 µM. Further, the TGI in the assay on SR leukemia is 28.3 µM; with NCI-H226 lung it was above 100 µM; in the assay with HCT-116 colon, above 100 µM; in the assay with SNB-19 CNS it was above 100 µM.
Consider `CC(C)(C)n1cc(-c2ccnc(NCCNS(=O)(=O)c3ccc(Br)cc3)c2)c(-c2cccc(O)c2)n1`, for which the GI50 in the assay with EKVX NSCLC was 2270 nM; with OVCAR-3 ovarian it was 1850 nM; with CCRF-CEM leukemia, 2690 nM; with SF-295 CNS it was 1820 nM; in the assay on M14 melanoma it was 1770 nM; in the assay with CAKI-1 renal, 2170 nM. In addition, the GI50 with SR leukemia was 286 nM; in the assay with NCI-H226 lung, 2.07 µM; in the assay on HCT-116 colon, 1440 nM; in the assay with SNB-19 CNS it was 2290 nM. In addition, the TGI with EKVX NSCLC amounted to 6.88 µM; in the assay on OVCAR-3 ovarian, 3.68 µM; in the assay on CCRF-CEM leukemia, 18.2 µM; with SF-295 CNS, 3.61 µM; in the assay with M14 melanoma, 3.4 µM; in the assay with CAKI-1 renal, 6.07 µM. In addition, the TGI came out at 6.16 µM in the assay with SR leukemia, 5.32 µM in the assay on NCI-H226 lung, 2.86 µM in the assay on HCT-116 colon and 5.67 µM with SNB-19 CNS.
With `Cc1cc(CS(=O)(=O)/C=C/c2ccccc2[N+](=O)[O-])c(CS(=O)(=O)/C=C/c2ccccc2[N+](=O)[O-])cc1C`, the TGI in the assay with EKVX NSCLC was above 100 µM; with OVCAR-3 ovarian, above 100 µM; in the assay on CCRF-CEM leukemia, above 46.4 µM; with SF-295 CNS it was 63.2 µM; in the assay with M14 melanoma it was above 100 µM; in the assay on CAKI-1 renal, above 100 µM. Also, the TGI was above 100 µM in the assay on SR leukemia, 59.4 µM in the assay on NCI-H226 lung, above 100 µM in the assay with HCT-116 colon and above 83.1 µM in the assay with SNB-19 CNS.
Regarding `CCOC(=O)c1cnc2[nH]c(=O)c3ccccc3n2c1=O`, the TGI in the assay with EKVX NSCLC, in the assay on OVCAR-3 ovarian, in the assay on CCRF-CEM leukemia, in the assay on SF-295 CNS, in the assay with M14 melanoma and in the assay on CAKI-1 renal was above 100 µM throughout. Besides, the TGI in the assay with SR leukemia, with NCI-H226 lung, in the assay with HCT-116 colon and in the assay with SNB-19 CNS was above 100 µM each time.
In the case of `Cc1c(C(C)C)cc(OCCO)cc1C(C)C`, the TGI in the assay on EKVX NSCLC was 70.9 µM; with OVCAR-3 ovarian it was above 100 µM; in the assay on CCRF-CEM leukemia, above 100 µM; in the assay with SF-295 CNS, above 100 µM; in the assay on M14 melanoma, above 100 µM; in the assay with CAKI-1 renal, above 100 µM. For the same molecule, the TGI with SR leukemia is 73.8 µM; in the assay on NCI-H226 lung it was above 100 µM; with HCT-116 colon it was above 100 µM; in the assay with SNB-19 CNS, above 100 µM.
On to `Clc1ccc2c(Cl)ncnc2c1`, for which the TGI with EKVX NSCLC, in the assay on OVCAR-3 ovarian, in the assay with CCRF-CEM leukemia, with SF-295 CNS, with M14 melanoma and in the assay with CAKI-1 renal was above 100 µM throughout. Besides, the TGI with SR leukemia, with NCI-H226 lung, in the assay with HCT-116 colon and in the assay with SNB-19 CNS was above 100 µM each time.
Turning to `COC(=O)C(CC=O)C(=O)C(=O)Nc1cccc(C(F)(F)F)c1` (centres undefined), the TGI in the assay on EKVX NSCLC, with OVCAR-3 ovarian, in the assay on CCRF-CEM leukemia, in the assay with SF-295 CNS, with M14 melanoma and in the assay on CAKI-1 renal was above 100 µM each time. For the same molecule, the TGI with SR leukemia, in the assay on NCI-H226 lung, in the assay on HCT-116 colon and in the assay with SNB-19 CNS was above 100 µM in each case.
